In ChEMBL document CHEMBL1130240, “Synthesis and structure-activity profiles of A-homoestranes, the estratropones” (J Med Chem, 1997):

Assays:
[1] = biological target: Tubulin (Bos taurus) (UniProt Q6B856+Q862L2+Q862F3); assay: Inhibition of tubulin polymerization by colchicine to that of compound (IC50colchicine/IC50 drug); assay type: functional
[2] = biological target: T1, Tubulin beta chain (Bos taurus, UniProt Q6B856); assay: (§1) Inhibition of tubulin polymerization; assay type: functional
T1 sequence (Q6B856 whole entry): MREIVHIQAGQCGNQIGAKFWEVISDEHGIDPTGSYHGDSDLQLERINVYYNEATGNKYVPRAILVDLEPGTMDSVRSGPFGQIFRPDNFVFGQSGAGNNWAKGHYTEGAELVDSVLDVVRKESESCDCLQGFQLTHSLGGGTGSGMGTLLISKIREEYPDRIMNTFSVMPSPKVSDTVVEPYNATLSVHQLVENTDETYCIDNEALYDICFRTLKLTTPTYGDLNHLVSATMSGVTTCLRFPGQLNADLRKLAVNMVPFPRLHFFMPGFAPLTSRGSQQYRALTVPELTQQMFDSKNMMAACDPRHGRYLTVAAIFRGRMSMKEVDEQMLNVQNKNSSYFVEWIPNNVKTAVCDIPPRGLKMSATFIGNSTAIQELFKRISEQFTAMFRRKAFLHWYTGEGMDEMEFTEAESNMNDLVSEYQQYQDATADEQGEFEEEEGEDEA

[3] = biological target: T1, Tubulin beta chain; assay: as §1

C[C@]12CC[C@@H]3c4ccc(=O)ccc4CC[C@H]3[C@@H]1CC[C@@H]2O
Activity [1]: 2.5
IC50 [2]: 4.4 µM

C[C@]12CC[C@@H]3c4cccc(=O)cc4CC[C@H]3[C@@H]1CC[C@@H]2O
IC50 [3]: 7.2 µM

COc1ccc2c(cc1=O)[C@H]1CC[C@]3(C)[C@@H](O)CC[C@H]3[C@@H]1CC2
IC50 [3]: 27.5 µM

COc1cc2c(cc1O)CC[C@@H]1[C@@H]2CC[C@]2(C)[C@@H](O)CC[C@@H]12 [2-METHOXYESTRADIOL]
IC50 [3]: 14.2 µM

CCOc1cc2c(ccc1=O)[C@H]1CC[C@]3(C)[C@@H](O)CC[C@H]3[C@@H]1CC2
IC50 [3]: 5.9 µM

COc1cc2c(ccc1=O)[C@H]1CC[C@]3(C)[C@@H](O)CC[C@H]3[C@@H]1CC2
IC50 [3]: 2.1 µM

COc1cc2c(ccc1=O)CC[C@@H]1[C@@H]2CC[C@]2(C)[C@@H](O)CC[C@@H]12
IC50 [3]: 29.8 µM

COc1ccc2c(cc1=O)CC[C@@H]1[C@@H]2CC[C@]2(C)[C@@H](O)CC[C@@H]12
IC50 [3]: 8.1 µM

C[C@]12CC[C@@H]3c4ccc(Cl)c(=O)cc4CC[C@H]3[C@@H]1CC[C@@H]2O
Activity [1]: 4
IC50 [2]: 2.8 µM

C[C@]12CC[C@@H]3c4ccc(=O)c(Br)cc4CC[C@H]3[C@@H]1CC[C@@H]2O
IC50 [3]: 11.2 µM

C[C@]12CC[C@@H]3c4ccc(Br)c(=O)cc4CC[C@H]3[C@@H]1CC[C@@H]2O
Activity [1]: 3.9
IC50 [2]: 2.9 µM

C[C@]12CC[C@@H]3c4ccc(=O)c(Cl)cc4CC[C@H]3[C@@H]1CC[C@@H]2O
Activity [1]: 1.1
IC50 [2]: 9.8 µM
